Read-outs that look alike come from different tables or passages of the source.
Tests used:
MCF7 cells [1] = settings: various concentrations, 1, 3 or 5 days, normalized to vehicle
Experimental: To confirm that the observed increase in ECAR corresponded to L-lactate production, L-lactate levels were measured directly using the ISCUS^flex Microdialysis Analyser (M Dialysis Inc., MA, USA). Culture media were collected, centrifuged and analysed with the ISCUS^flex Microdialysis Analyzer after treatment of MCF7 cells with various concentrations of DPI for 1, 3 or 5 days. Calibration of the instrument was performed by samples provided by the manufacturer. Then L-lactate levels were measured and normalized to samples taken from MCF7 cells treated with vehicle only.

MCF7 cells [2] = assay: cells; settings: Homo sapiens
Experimental: Cells were grown for 5 days and maintained in a humidified incubator at 37° C. at an atmospheric pressure in 5% (v/v) carbon dioxide/air.

MCF7 cells [3] = settings: 500 nM DPI, 72 hours
Experimental: Assays were performed according to the manufacturer's protocol.

MCF7 cells [4] = assay: cells; settings: Homo sapiens, MCF7, 120 h, read-out: IC-50, reduction of CD44+/CD24- cell population
Experimental: Inventors examined specific cell surface markers, namely fluorescent antibody probes directed against CD44 and CD24. The CD44+/CD24-cell population represents a CSC-enriched fraction. 1×10^5 MCF7 cells were plated in 6-well plates in complete media supplemented with 10% heat-inactivated FBS. […] Vehicle alone (DMSO) control cells were processed in parallel. Briefly, 30,000-50,000 live cells, as identified by 7-AAD dye staining, were analyzed for CD24/CD44 expression. Inventors used CD24 (IOTest CD24-PE, Beckman Coulter) and CD44 (APC mouse Anti-Human CD44, BD Pharmingen) antibodies for fluorescence activated cell sorting (FACS) analysis, using the BD LSR Fortessa (BD Bioscience). […] One-way ANOVA was used with Bonferroi's multiple comparisons test.

MCF7 cells [5] = settings: 10 nM, 1 month culture
MCF7 cells [6] = assay: cells
Text: (§1) A number of methods may be used for functional validation, including, for example, metabolic flux analysis, mammosphere assays, viability assays, and antibiotic (anti-bacterial and/or anti-fungal) activity. The inventors determined real-time oxygen consumption rates (OCR) and extracellular acidification rates (ECAR) in MCF7 cells using the Seahorse Extracellular Flux (XF96) analyzer (Seahorse Bioscience, Mass., USA). Briefly, MCF7 cells were maintained in DMEM supplemented with 10% FBS (fetal bovine serum), 2 mM GlutaMAX, and 1% Pen-Strep. 8,000 cells per well were seeded into XF96-well cell culture plates, and incubated overnight at 37° C. in a 5% CO2 humidified atmosphere. The next day, cells were washed in pre-warmed XF assay media (for OCR measurement, XF assay media was supplemented with 10 mM glucose, 1 mM Pyruvate and adjusted at pH 7.4). Cells were then maintained in 175 μL/well of XF assay media at 37° C., in a non-CO2 incubator for 1 hour. During incubation, 25 μL of 80 mM glucose, 9 μM oligomycin, 1M 2-deoxyglucose (for ECAR measurement) and 25 μL of 10 μM oligomycin, 9 μM FCCP, 10 μM rotenone, 10 μM antimycin A (for OCR measurement) in XF assay media was loaded into the injection ports of the XFe-96 sensor cartridge. During the experiment, the instrument injected these inhibitors into the wells at a given time point, while ECAR/OCR was measured continuously. ECAR and OCR measurements were normalized by protein content (Sulphorhodamine B assay). Data sets were analyzed by XFe-96 software, using one-way ANOVA and Student's t-test calculations. All experiments were performed in triplicate.
It should be appreciated that numerous methods are known for functional validation, and that persons of skill in the art may select one or more depending on the validation needs (e.g., other assays that measure or approximate mitochondrial function).
(§2) Given DPI's high potency, inventors assessed its ability to rapidly affect cell metabolism.
To assess the reversibility of DPI's effects, MCF7 cells were first subjected to DPI treatment for 24 hours. Then, DPI was removed (“wash-out”) and the cells were cultured for an additional 24 hours, to allow recovery.
The inventors also examined the effects of long-term treatment with DPI on cells.

MCF7 cells [7] = settings: 24 hours
Experimental: Inventors hypothesized that possible mechanism by which DPI inhibits CSC propagation is by inducing mitochondrial reactive oxygen species (ROS) production. To test this hypothesis, inventors determined the effects of DPI on mitochondrial ROS production, over the range of 5 to 50 nM. Briefly, production of superoxide by mitochondria was measured by the MitoSOX™ Red mitochondrial superoxide indicator (ThermoFisher Sci., M36008). 3×10^5 MCF7 cells/well were plated in 6-well plates in complete media supplemented with 10% heat-inactivated FBS. The next day, cells were treated with DPI (5, 50 nM) or Rotenone (0.5 μM) for 24 hours. Vehicle alone (DMSO) for control cells were processed in parallel. At least 30,000 events were recorded by FACS using Fortessa (BD Bioscience). Three biological replicates (repeats) were analyzed in independent experiments.

C. elegans = settings: during response to oxidative stress; cited from earlier work
MCF7 cells [8] = tested on: MCF7 cells
Text: as §1, §2

hTERT-BJ1 cells = settings: five days of incubation, up to 100 nM
Experimental: (§3) The inventors used a Sulphorhodamine (SRB) assay, which is based on the measurement of cellular protein content. After treatment for five days in 96-well plates, cells were fixed with 10% trichloroacetic acid (TCA) for 1 hour in the cold room, and were dried overnight at room temperature. Then, cells were incubated with SRB for 15 min, washed twice with 1% acetic acid, and air dried for at least 1 hour. Finally, the protein-bound dye was dissolved in a 10 mM Tris, pH 8.8 solution and read using the plate reader at 540-nm.

MCF7 cells [9] = settings: five days of treatment, concentration as high as 33 nM
Experimental: as §3

**Q.** Which L-lactate production (MCF7 cells [1]) does the source give for c1ccc2c(c1)[I+]c1ccccc1-2 [DPI, Diphenyleneiodonium chloride] here?
**A.** The L-lactate production was “nearly doubling the amount of lactate produced”.

**Q.** And the IC50 (MCF7 cells [2]; MCF7, 120 h, read-out: IC-50, CSC propagation (mammosphere formation))?
**A.** The IC50 was 3.23 nM.

**Q.** And the inhibition at 0.005 µM (MCF7 cells [2]; MCF7, read-out: inhibition of mammosphere formation)?
**A.** The inhibition at 0.005 µM was > 50%.

**Q.** What about the “cell death (number of attached cells by DNA content)” value (MCF7 cells [3]) of the same compound?
**A.** The value was “did not significantly induce any cell death”.

**Q.** What about the “reduction of ATP levels” value (MCF7 cells [3]) of the same compound?
**A.** Its value is > 80%.

**Q.** And the IC50 (MCF7 cells [4])?
**A.** Its IC50 is 10 nM.

**Q.** And the “morphology and density of the cells” value (MCF7 cells [5])?
**A.** The value was “remains unchanged”.

**Q.** What about the “effect on OCR” value (MCF7 cells [6]; 2.5 nM, 24-hour treatment) of the same compound?
**A.** The value was “little or no effect”.

**Q.** What about the “reduction of basal respiration” value (MCF7 cells [6]; 5 nM, 24-hour treatment) of the same compound?
**A.** The value was ~50%.

**Q.** What about the “decrease of basal respiration rate” value (MCF7 cells [6]; 10 nM, 24-hour treatment) of the same compound?
**A.** The value was ~85%.

**Q.** What about the “reduction in ATP production (ATP-linked respiration)” value (MCF7 cells [6]; 10 nM, 24-hour treatment) of the same compound?
**A.** The value was > 90%.

**Q.** What about the “inhibition of mitochondrial respiration after long-term treatment” value (MCF7 cells [6]; 1 month culture with 10, 25 and 50 nM) of the same compound?
**A.** Its value is “near complete inhibition of respiration”.

**Q.** And the IC50 (MCF7 cells [6]; Homo sapiens, MCF7, 1 h, read-out: IC-50, inhibition of basal respiration)?
**A.** Its IC50 is 50 nM.

**Q.** And the “mitochondrial ROS production” value (MCF7 cells [7]; 5 nM, relative to vehicle)?
**A.** Its value is “failed to induce any detectable mitochondrial ROS production”.

**Q.** And the “mitochondrial ROS production” value (MCF7 cells [7]; 50 nM, versus positive control Rotenone)?
**A.** The value was “induced the same amount of mitochondrial ROS as 500 nM Rotenone”.

**Q.** And the “accumulation of lipofuscin (aging-associated marker)” value (C. elegans)?
**A.** The value was “prevents the accumulation of lipofuscin”.

**Q.** And the “effect on ECAR” value (MCF7 cells [8]; 2.5 nM, 24 hours of treatment)?
**A.** Its value is “little or no effect”.

**Q.** And the increase of glycolysis (MCF7 cells [8]; 10 nM, 24 hours of treatment)?
**A.** The increase of glycolysis was ~2 fold.

**Q.** What about the increase of glycolysis (MCF7 cells [8]; one-hour treatment, 5 to 100 nM) of the same compound?
**A.** The increase of glycolysis was “effectively doubled”.

**Q.** And the “toxic effects / cell viability in normal fibroblasts (hTERT-BJ1)” value (hTERT-BJ1 cells)?
**A.** The value was “little or no toxic effects”.

**Q.** And the “toxicity / cell viability in MCF7 cells” value (MCF7 cells [9])?
**A.** Its value is “little or no toxicity”.

From patent US11497749B2, “Mitoflavoscins: targeting flavin-containing enzymes eliminates cancer stem cells (CSCS) by inhibiting mitochondrial respiration” (LUNELLA BIOTECH, INC., priority 2017, dated 2022)
